Data: US20060069132A1, “Azolecarboxamide herbicides” (priority 2004, published 2006)

Columns and labels:
[1] = tested on: small flower umbrella sedge; assay: Test B flooded paddy test; type: in vivo, Cyperus difformis; conditions: 1000 g ai/ha, visual rating, scale 0 to 100 (0 no effect, 100 complete control), 13 to 15 days
Procedure, shortened: (§1)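 Read-out: visual comparison with controls, scored 0 to 100, where 100 means complete control and 0 no effect. Formulated chemicals were applied postemergence to plants 2–18 cm tall (1- to 4-leaf), or to flooded-paddy plants at the 2-leaf stage, then held 13 to 15 days under glass.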

wild oat = assay: Test B postemergence herbicide test; type: in vivo, Avena fatua; conditions: postemergence, visual rating, scale 0 (no effect) to 100 (complete control)
Procedure, shortened: (§2)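 Each value is a visual 0–100 response rating taken against controls 13 to 15 days after treatment in the greenhouse. Plants received formulated chemical postemergence at the 1- to 4-leaf stage or, in flooded paddy, at the 2-leaf stage.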

ducksalad [2] = assay: Test C flooded paddy test; type: in vivo, Heteranthera limosa
velvetleaf = assay: Test B pre-/postemergence herbicide test; type: in vivo, Abutilon theophrasti; conditions: for Velvetleaf plant response rating: postemergence, visual rating, scale 0 (no effect) to 100 (complete control)
Procedure, shortened: (§3)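 Plants compared with untreated controls 13–15 days post-treatment and given a visual 0–100 injury score. Applications: preemergence to seeds; postemergence at 1- to 4-leaf (2–18 cm); paddy species flooded, 2-leaf stage. Vehicle non-phytotoxic, surfactant included.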

ducksalad [3] = assay: Test B flooded paddy test; type: in vivo, Heteranthera limosa; conditions: 1000 g ai/ha, visual rating, scale 0 to 100 (0 no effect, 100 complete control), 13 to 15 days
Procedure, shortened: as §1

giant foxtail = assay: Test B pre-/postemergence herbicide test; type: in vivo, Setaria faberi; conditions: for Foxtail, Giant plant response rating: postemergence, visual rating, scale 0 (no effect) to 100 (complete control)
Procedure, shortened: as §3

barnyardgrass [4] = assay: Test B flooded paddy test; type: in vivo, Echinochloa crus-galli; conditions: 1000 g ai/ha, visual rating, scale 0 to 100 (0 no effect, 100 complete control), 13 to 15 days
Procedure, shortened: as §1

rice [5] = assay: Test B pre-/postemergence herbicide test; type: in vivo, Oryza sativa; conditions: preemergence
Procedure, shortened: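 Greenhouse pot assay with simultaneous preemergence (treated seed) and postemergence (2–18 cm seedlings) applications of surfactant-containing, non-phytotoxic solvent formulations. Response scored visually 13–15 days later on a 0–100 scale, 100 meaning complete control.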

rice [6] = assay: Test C flooded paddy test; type: in vivo, Oryza sativa
Procedure, shortened: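 Injury scored visually against controls on a 0 (no effect) to 100 (complete control) scale, 12 to 14 days after treatment in greenhouse. Flooded paddy plants treated at 2-leaf stage; postemergence plants at 1- to 4-leaf stage, 2 to 18 cm tall.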

wheat = assay: Test B postemergence herbicide test; type: in vivo, Triticum aestivum; design: key to Wheat plant response rating: 0 = no effect, 100 = complete control; conditions: postemergence, visual rating, scale 0 (no effect) to 100 (complete control)
Procedure, shortened: as §2

Surinam grass = assay: Test B pre-/postemergence herbicide test; type: in vivo, Urochloa decumbens; conditions: for Surinam Grass plant response rating: postemergence, visual rating, scale 0 (no effect) to 100 (complete control)
Procedure, shortened: as §3

lambsquarters = assay: Test B pre-/postemergence herbicide test; type: in vivo, Chenopodium album
Procedure, shortened: as §3

pigweed = assay: Test B pre-/postemergence herbicide test; type: in vivo, Amaranthus retroflexus; conditions: for Pigweed plant response rating: postemergence, visual rating, scale 0 (no effect) to 100 (complete control)
Procedure, shortened: as §3

[7] = tested on: smallflower umbrella sedge; assay: Test C flooded paddy test; type: in vivo, Cyperus difformis
blackgrass = assay: Test B postemergence herbicide test; type: in vivo, Alopecurus myosuroides; conditions: postemergence, visual rating, scale 0 (no effect) to 100 (complete control)
Procedure, shortened: as §1

corn = assay: Test B pre-/postemergence herbicide test; type: in vivo, Zea mays; conditions: for Corn plant response rating: postemergence, visual rating, scale 0 (no effect) to 100 (complete control)
Procedure, shortened: as §3

barnyardgrass [8] = assay: Test B pre-/postemergence herbicide test; type: in vivo, Echinochloa crus-galli; conditions: for Barnyardgrass plant response rating: postemergence, visual rating, scale 0 (no effect) to 100 (complete control)
Procedure, shortened: (§4)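 Pre: seeds sown, then sprayed. Post: 1–4-leaf plants (2–18 cm) sprayed at the same time. Paddy: flooded, treated at 2-leaf stage. Formulation: non-phytotoxic solvent with surfactant. Greenhouse 13–15 days; visual 0–100 score relative to controls.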

barnyardgrass [9] = assay: Test C flooded paddy test; type: in vivo, Echinochloa crus-galli
Procedure, shortened: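 Ratings (0 = no effect, 100 = complete control) come from visual comparison with untreated plants after 12 to 14 days in the greenhouse. Treatment was postemergence at the 1- to 4-leaf stage (2–18 cm), or at the 2-leaf stage for the flooded paddy barnyardgrass.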

morningglory = assay: Test B pre-/postemergence herbicide test; type: in vivo, Ipomoea coccinea; conditions: for Morningglory plant response rating: postemergence, visual rating, scale 0 (no effect) to 100 (complete control)
Procedure, shortened: as §4

cocklebur = assay: Test B pre-/postemergence herbicide test; type: in vivo, Xanthium strumarium; conditions: for Cocklebur plant response rating: postemergence, visual rating, scale 0 (no effect) to 100 (complete control)
Procedure, shortened: as §4

large crabgrass = assay: Test B pre-/postemergence herbicide test; type: in vivo, Digitaria sanguinalis; conditions: for Crabgrass, Large plant response rating: postemergence, visual rating, scale 0 (no effect) to 100 (complete control)
Procedure, shortened: as §3

rice [10] = assay: Test B flooded paddy test; type: in vivo, Oryza sativa; conditions: 1000 g ai/ha, visual rating, scale 0 to 100 (0 no effect, 100 complete control), 13 to 15 days
Procedure, shortened: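 Formulated test chemicals went onto postemergence plants measuring 2 to 18 cm, at one to four leaves. For the paddy assay, species had reached two leaves. Scoring took place 13–15 days later by eye, relative to untreated plants, using 0 for no effect up to 100 for full control.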

[11] = 62 g ai/ha, scale 0 to 100 (0 no effect, 100 complete control)
[12] = 125 g ai/ha, scale 0 to 100 (0 no effect, 100 complete control)
[13] = 250 g ai/ha, scale of 0 to 100, 0 is no effect, 100 is complete control
[14] = 500 g ai/ha, visual rating after 12 to 14 days, scale 0 to 100 (0 no effect, 100 complete control)
[15] = 125 g ai/ha, 0 = no effect, 100 = complete control, preemergence
[16] = 500 g ai/ha, visual rating 0-100, 0 no effect, 100 complete control, preemergence

With `CCc1nn(C(C)(C)C)cc1C(=O)Nc1cc(C(=O)NC)ccc1F` [Compound 194] the “Sedge, Umbrella plant response rating” value [1] was 80, the “Oat, Wild plant response rating” value (wild oat; 125 g ai/ha) was 0 and the “Oat, Wild plant response rating” value (wild oat; 500 g ai/ha) was 0. For the same molecule, the “Ducksalad plant response rating” value (ducksalad [2]; [11]) was 0, the “Ducksalad plant response rating” value (ducksalad [2]; [12]) was 0 and the “Ducksalad plant response rating” value (ducksalad [2]; [13]) was 0. The “Plant response rating, Ducksalad” value (ducksalad [2]; [14]) was 40, the “Velvetleaf plant response rating (0 to 100 scale)” value (velvetleaf; [15]) was 20 and the “Plant response rating, Velvetleaf” value (velvetleaf; [16]) was 60. For the same molecule, the “Velvetleaf plant response rating” value (velvetleaf; 125 g ai/ha) was 10, the “Velvetleaf plant response rating” value (velvetleaf; 500 g ai/ha) was 10 and the “Ducksalad plant response rating” value (ducksalad [3]) was 90. For the same molecule, the “Foxtail, Giant plant response rating (0 to 100 scale)” value (giant foxtail; [15]) was 10, the “Plant response rating, Foxtail, Giant” value (giant foxtail; [16]) was 80 and the “Foxtail, Giant plant response rating” value (giant foxtail; 125 g ai/ha) was 0. The “Foxtail, Giant plant response rating” value (giant foxtail; 500 g ai/ha) was 0, the “Barnyardgrass plant response rating” value (barnyardgrass [4]) was 50 and the “Rice plant response rating (0 to 100 scale)” value (rice [5]; 125 g ai/ha, 0 = no effect, 100 = complete control) was 0. The “Plant response rating, Rice” value (rice [5]; 500 g ai/ha, visual rating 0-100, 0 no effect, 100 complete control) was 70, the “Rice plant response rating” value (rice [6]; [11]) was 0 and the “Rice plant response rating” value (rice [6]; [12]) was 25. The “Rice plant response rating” value (rice [6]; [13]) was 25, the “Plant response rating, Rice” value (rice [6]; [14]) was 45 and the “Wheat plant response rating” value (wheat; 125 g ai/ha) was 0. The “Wheat plant response rating” value (wheat; 500 g ai/ha) was 0, the “Surinam Grass plant response rating (0 to 100 scale)” value (Surinam grass; [15]) was 0 and the “Plant response rating, Surinam Grass” value (Surinam grass; [16]) was 60. The “Surinam Grass plant response rating” value (Surinam grass; 125 g ai/ha) was 10, the “Surinam Grass plant response rating” value (Surinam grass; 500 g ai/ha) was 10 and the “Lambsquarters plant response rating (0 to 100 scale)” value (lambsquarters; [15]) was 30. For the same molecule, the “Lambsquarters plant response rating” value (lambsquarters; postemergence, 500 g ai/ha, visual rating, scale 0 (no effect) to 100 (complete control)) was 30, the “Pigweed plant response rating (0 to 100 scale)” value (pigweed; [15]) was 0 and the “Plant response rating, Pigweed” value (pigweed; [16]) was 100. For the same molecule, the “Pigweed plant response rating” value (pigweed; 125 g ai/ha) was 20, the “Pigweed plant response rating” value (pigweed; 500 g ai/ha) was 30 and the “Sedge, Umbrella plant response rating” value [7, 11] was 0. For the same molecule, the “Sedge, Umbrella plant response rating” value [7, 12] was 0, the “Sedge, Umbrella plant response rating” value [7, 13] was 35 and the “Plant response rating, Sedge, Umbrella” value [7, 14] was 75. For the same molecule, the “Blackgrass plant response rating” value (blackgrass; 125 g ai/ha) was 0, the “Blackgrass plant response rating” value (blackgrass; 500 g ai/ha) was 0 and the “Corn plant response rating (0 to 100 scale)” value (corn; [15]) was 0. For the same molecule, the “Plant response rating, Corn” value (corn; [16]) was 50, the “Corn plant response rating” value (corn; 125 g ai/ha) was 0 and the “Corn plant response rating” value (corn; 500 g ai/ha) was 0. The “Barnyardgrass plant response rating (0 to 100 scale)” value (barnyardgrass [8]; [15]) was 0, the “Plant response rating, Barnyardgrass” value (barnyardgrass [8]; [16]) was 90 and the “Barnyardgrass plant response rating” value (barnyardgrass [8]; 125 g ai/ha) was 0. For the same molecule, the “Barnyardgrass plant response rating” value (barnyardgrass [8]; 500 g ai/ha) was 10, the “Barnyardgrass plant response rating” value (barnyardgrass [9]; [11]) was 0 and the “Barnyardgrass plant response rating” value (barnyardgrass [9]; [12]) was 0. For the same molecule, the “Barnyardgrass plant response rating” value (barnyardgrass [9]; [13]) was 0, the “Plant response rating, Barnyardgrass” value (barnyardgrass [9]; [14]) was 25 and the “Morningglory plant response rating (0 to 100 scale)” value (morningglory; [15]) was 20. The “Plant response rating, Morningglory” value (morningglory; [16]) was 50, the “Morningglory plant response rating” value (morningglory; 125 g ai/ha) was 10 and the “Morningglory plant response rating” value (morningglory; 500 g ai/ha) was 10. For the same molecule, the “Cocklebur plant response rating (0 to 100 scale)” value (cocklebur; [15]) was 0, the “Plant response rating, Cocklebur” value (cocklebur; [16]) was 20 and the “Cocklebur plant response rating” value (cocklebur; 125 g ai/ha) was 10. The “Cocklebur plant response rating” value (cocklebur; 500 g ai/ha) was 10, the “Crabgrass, Large plant response rating (0 to 100 scale)” value (large crabgrass; [15]) was 100 and the “Plant response rating, Crabgrass, Large” value (large crabgrass; [16]) was 100. For the same molecule, the “Crabgrass, Large plant response rating” value (large crabgrass; 125 g ai/ha) was 10, the “Crabgrass, Large plant response rating” value (large crabgrass; 500 g ai/ha) was 10 and the “Rice plant response rating” value (rice [10]) was 60.
